Reference: patent US10124035B2, “DISC-1 pathway activators in the control of neurogenesis” (Massachusetts Institute of Technology, priority 2008, dated 2018)
“Also recorded” adds a separate entry of the source.

Test system: TCF reporter in 293T cells
Assay: TCF reporter activity in DISC1 knockdown 293T cells with Wnt3a conditional medium
Type: cell-based
Settings: 16 hours
Description: Primary neural stem cells from E14 brains were infected with control or DISC1 shRNA lentiviruses. 48 hours after to transduction, cells were treated with vehicle or SB-216763 (5 μM) for 16 hours and then pulsed with 10 μM BrdU for 2 hours. Shown is percentage of GFP and BrdU double positive cells to total GFP positive cells (n=3, p<0.05). b. […] 1.5 μg of vector or WT-DISC1 was cotransfected with 0.5 μg control or DISC1 shRNA-2, 0.1 μg TCF reporter, and 10 ng pRL-TK vector into 293T cells. 48 hours after transfection, Wnt3a conditional medium with vehicle, SB-216763, or AR-A104418 was added for another 16 hours.
• Mice. Swiss Webster pregnant female mice were purchased from Taconic (Hudson, N.Y.). • Cell Culture. AHPs were kindly provided by Dr. Gage (Lie, D. C. et al. Wnt signaling to regulates adult hippocampal neurogenesis. Nature 437, 1370-5 (2005)) and cultured under conditions described previously (Palmer, T. D., Takahashi, J. & Gage, F. H. The adult rat hippocampus contains primordial neural stem cells. Mol Cell Neurosci 8, 389-404 (1997)). Primary neural progenitors were isolated from E14 mouse embryos and cultured as described previously (Sanada, K. & Tsai, L. H. G protein betagamma subunits and AGS3 control spindle orientation and asymmetric cell fate of cerebral cortical progenitors. Cell 122, 119-31 (2005)). N2a and 293T cells were cultured in DMEM medium containing 10% FBS, L-glutamine, and penicillin/streptomycin. Wnt3a expressing L cells and untransfected L cells were obtained from ATCC (Manassas, Va.). Wnt3a conditional medium was produced according to the ATCC protocol. To induce AHP differentiation, FGF2 was removed from the culture medium and 1 μM retinoic acid/1% FBS was added to the medium for 4 days. • Reagents. Recombinant Wnt3a protein was obtained from Chemicon (Rosemont, Ill.). FGF2 was obtained from PeproTech (Rocky Hill, N.J.). Recombinant GST-GSK3β was obtained from Active Motif (Carlsbad, Calif.). Recombinant GST-β-catenin and GST-axin were obtained from Millipore (Billerica, Mass.). […]

Cn1cc(C2=C(c3ccc(Cl)cc3Cl)C(=O)NC2=O)c2ccccc21 [SB-216763]
TCF reporter activity in DISC1 knockdown cells: rescued TCF activity in DISC1 knockdown cells to control levels; also recorded: rescues the TCF activation defect caused by DISC1 knockdown
